Measured values as given in patent US20250340529A1, “Heterocyclic Compounds as Immunomodulators of PD-L1 Interactions” (Ascletis BioScience Co., Ltd, priority 2021, published 2025).

Each compound was assayed against PD-1/PD-L1 (Homo sapiens (Human), UniProt Q9NZQ7) (assay: PD-1/PD-L1 Homogeneous Time-Resolved Fluorescence (HTRF) binding assay). Settings: 3 nM PD1, 10 nM PD-L1, 25° C., PBS pH 7.4.
Method: PD-1/PD-L1 Homogeneous Time-Resolved Fluorescence (HTRF) Binding Assay
The assays were conducted in a standard black 384-well polystyrene plate with a final volume of 20 μL. Inhibitors were first serially diluted in DMSO and then added to the plate wells before the addition of other reaction components. The final concentration of DMSO in the assay was 1%. The assays were carried out at 25° C. in the PBS buffer (pH 7.4) with 0.05% Tween-20 and 0.1% BSA. Recombinant human PD-L1 protein (19-238) with a Histag at the C-terminus was purchased from AcroBiosystems (PD1-H5229). Recombinant human PD-1 protein (25-167) with Fe tag at the C-terminus was also purchased from AcroBiosystems (PD1-H5257). PD-L1 and PD-1 proteins were diluted in the assay buffer and 10 μL was added to the plate well. Plates were centrifuged and proteins were preincubated with inhibitors for 40 minutes. The incubation was followed by the addition of 10 μL of HTRF detection buffer supplemented with Europium cryptate-labeled anti-human IgG (PerkinElmer-AD0212) specific for Fe and anti-His antibody conjugated to SureLight®-Allophycocyanin (APC, PerkinElmer-AD0059H). After centrifugation, the plate was incubated at 25° C. for 60 min. before reading on a PHERAstar FS plate reader (665 nm/620 nm ratio). Final concentrations in the assay were—3 nM PD1, 10 nM PD-L1, 1 nM europium anti-human IgG and 20 nM anti-His-Allophycocyanin. IC50 determination was performed by fitting the curve of percent control activity versus the log of the inhibitor concentration.

PD-1/PD-L1, sequence (Q9NZQ7 19-238): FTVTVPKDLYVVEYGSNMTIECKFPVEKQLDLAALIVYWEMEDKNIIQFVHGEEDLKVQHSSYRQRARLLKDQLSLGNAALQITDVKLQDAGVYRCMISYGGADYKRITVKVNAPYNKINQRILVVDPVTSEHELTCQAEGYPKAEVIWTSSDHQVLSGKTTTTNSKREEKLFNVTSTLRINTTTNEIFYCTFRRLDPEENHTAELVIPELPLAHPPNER

How did the IC50 turn out when O=C(O)CCNCCN1C(=O)COc2cc(-c3cccc(-c4cccc(-c5ccc6c(c5)OCC(=O)N6CCN5CC[C@H](O)C5)c4Cl)c3Cl)ccc21 [Compound 491] was run?
The IC50 was 5.22 nM.

How did the IC50 turn out when O=C1CC(CN2C(=O)COc3cc(-c4cccc(-c5cccc(-c6ccc7c(c6)OCC(=O)N7C[C@@H]6CCC(=O)N6)c5Cl)c4Cl)ccc32)CN1 (stereo partly drawn) [Compound 450] was run?
The IC50 was 6.47 nM.

Which IC50 does the source give for O=C(O)CCCCNCCN1C(=O)COc2cc(-c3cccc(-c4cccc(-c5ccc6c(c5)OCC(=O)N6CCNCCCCC(=O)O)c4Cl)c3Cl)ccc21 [Compound 490] here?
The IC50 was 3.51 nM.

O=C1CC[C@@H](CN2C(=O)CCc3cc(-c4cccc(-c5cccc(-c6ccc7c(c6)CCC(=O)N7C[C@@H]6CCC(=O)N6)c5Cl)c4Cl)ccc32)N1 [Compound 281, 6,6′-(2,2′-dichloro-[1,1′-biphenyl]-3,3′-diyl)bis(1-(((S)-5-oxopyrrolidin-2-yl)methyl)-3,4-dihydroquinolin-2(1H)-one)] was tested. Which IC50 did it give?
The IC50 was 26.7 nM.

With N#CCN1C(=O)COc2cc(-c3cccc(-c4cccc(-c5ccc6c(c5)OCC(=O)N6CC#N)c4Cl)c3Cl)ccc21 [Compound 397, 2,2′-((2,2′-dichloro-[1,1′-biphenyl]-3,3′-diyl)bis(3-oxo-2,3-dihydro-4H-benzo[b][1,4]oxazine-7,4-diyl))diacetonitrile] as the compound, how does the IC50 read?
Its IC50 is 305 nM.

How did the IC50 turn out when O=C1COc2cc(-c3cccc(-c4cccc(-c5ccc6c(c5)OCC(=O)N6C[C@@H]5COCCN5)c4Cl)c3Cl)ccc2N1C[C@@H]1CCCCN1 [Compound 559] was run?
Its IC50 is 8.98 nM.

For O=C(O)[C@@H]1C[C@@H](O)CN1CCN1C(=O)COc2cc(-c3cccc(-c4cccc(-c5ccc6c(c5)OCC(=O)N6CCN5C[C@@H](O)C[C@H]5C(=O)O)c4Cl)c3Cl)ccc21 [Compound 482], which IC50 is on record?
The IC50 was 6.72 nM.

For O=C1NCCN1CCN1C(=O)COc2cc(-c3cccc(-c4cccc(-c5ccc6c(c5)OCC(=O)N6CCN5CCNC5=O)c4Cl)c3Cl)ccc21 [Compound 384], which IC50 is on record?
The IC50 was 260 nM.

How did the IC50 turn out when O=C1CC[C@@H](CN2C(=O)COc3nc(-c4cccc(-c5cccc(-c6cnc7c(n6)OCC(=O)N7C[C@@H]6CCC(=O)N6)c5Cl)c4Cl)cnc32)N1 [Compound 466] was run?
Its IC50 is 5 nM.

O=C1COc2cc(-c3cccc(-c4cccc(-c5ccc6c(c5)OCC(=O)N6C[C@@H]5CCCN5)c4Cl)c3Cl)ccc2N1CCN1CC[C@H](O)C1 [Compound 515] was tested. Which IC50 did it give?
The IC50 was 8.71 nM.

With O=C1CC[C@@H](CN2CCCc3cc(-c4cccc(-c5cccc(-c6ccc7c(c6)CCCN7C[C@@H]6CCC(=O)N6)c5Cl)c4Cl)ccc32)N1 [Compound 303] as the compound, how does the IC50 read?
The IC50 was 187 nM.

Which IC50 does the source give for CC1(C)Cc2cc(-c3cccc(-c4cccc(-c5cnc6c(c5)OC(C)(C)C(=O)N6C[C@@H]5CCC(=O)N5)c4Cl)c3Cl)cnc2N(C[C@@H]2CCC(=O)N2)C1=O [Compound 382] here?
Its IC50 is at least 3000 nM.

Which IC50 does the source give for O=C1COc2cc(-c3cccc(-c4cccc(-c5ccc6c(c5)OCC(=O)N6Cc5ncc[nH]5)c4Cl)c3Cl)ccc2N1Cc1ncc[nH]1 [Compound 415] here?
Its IC50 is 104 nM.

For O=C1COc2cc(-c3cccc(-c4cccc(-c5ccc6c(c5)OCC(=O)N6C[C@H]5CCNC5)c4Cl)c3Cl)ccc2N1C[C@H]1CCNC1 [Compound 531], which IC50 is on record?
The IC50 was 7.22 nM.

O=C(O)C1CCN(CCN2C(=O)COc3cc(-c4cccc(-c5cccc(-c6ccc7c(c6)OCC(=O)N7CCN6CCC(C(=O)O)C6)c5Cl)c4Cl)ccc32)C1 (stereo not drawn) [Compound 469] was tested. Which IC50 did it give?
The IC50 was 4.02 nM.

Which IC50 does the source give for O=C(O)[C@@H]1C[C@H](O)CN1CCN1C(=O)COc2cc(-c3cccc(-c4cccc(-c5ccc6c(c5)OCC(=O)N6CCN5C[C@@H](O)C[C@H]5C(=O)O)c4Cl)c3Cl)ccc21 [Compound 478] here?
The IC50 was 8.76 nM.

For O=C1CC[C@@H](CN2C(=O)COc3cc(-c4cccc(-c5cccc(-c6ccc7c(c6)OCC(=O)N7CCN6C[C@H](O)C[C@@H]6C(=O)O)c5Cl)c4Cl)ccc32)N1 [Compound 488], which IC50 is on record?
Its IC50 is 6.2 nM.

For O=C1COc2cc(-c3cccc(-c4cccc(-c5ccc6c(c5)OCC(=O)N6Cc5nn[nH]n5)c4Cl)c3Cl)ccc2N1Cc1nn[nH]n1 [Compound 412], which IC50 is on record?
The IC50 was at least 3000 nM.

O=C1CC[C@@H](CN2C(=O)COc3cc(-c4cccc(-c5cccc(-c6cc(F)c7c(c6)OCC(=O)N7C[C@@H]6CCC(=O)N6)c5Cl)c4Cl)cc(F)c32)N1 [Compound 396] was tested. Which IC50 did it give?
The IC50 was 11.7 nM.

How did the IC50 turn out when O=C1N[C@@H](CN2C(=O)COc3cc(-c4cccc(-c5cccc(-c6ccc7c(c6)OCC(=O)N7C[C@H]6COC(=O)N6)c5Cl)c4Cl)ccc32)CO1 [Compound 413] was run?
The IC50 was 7.05 nM.

O=C1CC[C@@H](CN2C(=O)COc3cc(-c4cccc(-c5cccc(-c6ccc7c(c6)OCC(=O)N7CCN6CC[C@H](O)C6)c5Cl)c4Cl)ccc32)N1 [Compound 492] was tested. Which IC50 did it give?
Its IC50 is 3.15 nM.

Which IC50 does the source give for O=C1CC[C@H](CN2C(=O)COc3cc(-c4cccc(-c5cccc(-c6ccc7c(c6)OCC(=O)N7C[C@H]6CCC(=O)N6)c5Cl)c4Cl)ccc32)N1 [Compound 448] here?
The IC50 was 5.45 nM.

How did the IC50 turn out when O=C1COc2cc(-c3cccc(-c4cccc(-c5ccc6c(c5)OCC(=O)N6CCn5cccn5)c4Cl)c3Cl)ccc2N1CCn1cccn1 [Compound 375] was run?
Its IC50 is 2710 nM.

O=C1COc2cc(-c3cccc(-c4cccc(-c5ccc6c(c5)OCC(=O)N6CCN5CCNC5=O)c4Cl)c3Cl)ccc2N1 [Compound 385] was tested. Which IC50 did it give?
The IC50 was 264 nM.

How did the IC50 turn out when O=C(O)C1CCN(CCN2C(=O)COc3cc(-c4cccc(-c5cccc(-c6ccc7c(c6)OCC(=O)N7CCNCCO)c5Cl)c4Cl)ccc32)C1 (stereo not drawn) [Compound 493] was run?
Its IC50 is 5.59 nM.

Which IC50 does the source give for O=C1C[C@@H](NCCN2C(=O)COc3cc(-c4cccc(-c5cccc(-c6ccc7c(c6)OCC(=O)N7CCN[C@H]6COC(=O)C6)c5Cl)c4Cl)ccc32)CO1 [Compound 527] here?
The IC50 was 9.41 nM.

Which IC50 does the source give for O=C1COc2cc(-c3cccc(-c4cccc(-c5ccc6c(c5)OCC(=O)N6CCn5cncn5)c4Cl)c3Cl)ccc2N1CCn1cncn1 [Compound 374] here?
The IC50 was 68.2 nM.

For O=C1CC[C@@H](CN2C(=O)COc3cc(-c4cccc(-c5cccc(-c6cc(Cl)c7c(c6)OCC(=O)N7C[C@@H]6CCC(=O)N6)c5Cl)c4Cl)cc(Cl)c32)N1 [Compound 376], which IC50 is on record?
The IC50 was 200 nM.

For CC(C)[C@H](N)C(=O)N1CCC[C@H]1CN1C(=O)COc2cc(-c3cccc(-c4cccc(-c5ccc6c(c5)OCC(=O)N6C[C@@H]5CCCN5C(=O)[C@@H](N)C(C)C)c4Cl)c3Cl)ccc21 [Compound 459], which IC50 is on record?
Its IC50 is 436 nM.

Which IC50 does the source give for Nc1cc2c(cc1-c1cccc(-c3cccc(-c4cc5c(cc4N)N(C[C@@H]4CCC(=O)N4)C(=O)CO5)c3Cl)c1Cl)OCC(=O)N2C[C@@H]1CCC(=O)N1 [Compound 354] here?
Its IC50 is 2180 nM.

CC(=O)N1CCC(N2C(=O)COc3cc(-c4cccc(-c5cccc(-c6ccc7c(c6)OCC(=O)N7C6CCN(C(C)=O)CC6)c5Cl)c4Cl)ccc32)CC1 [Compound 408] was tested. Which IC50 did it give?
The IC50 was 571 nM.

How did the IC50 turn out when CC(=O)NCCNCCN1C(=O)COc2cc(-c3cccc(-c4cccc(-c5ccc6c(c5)OCC(=O)N6C[C@@H]5CCC(=O)N5)c4Cl)c3Cl)ccc21 [Compound 489] was run?
The IC50 was 6.31 nM.

How did the IC50 turn out when O=C1CCCN1CCN1C(=O)COc2cc(-c3cccc(-c4cccc(-c5ccc6c(c5)OCC(=O)N6CCN5CCCC5=O)c4Cl)c3Cl)ccc21 [Compound 394] was run?
Its IC50 is 471 nM.

O=C(O)C1CCC(=O)N1CCN1C(=O)COc2cc(-c3cccc(-c4cccc(-c5ccc6c(c5)OCC(=O)N6CCN5C(=O)CCC5C(=O)O)c4Cl)c3Cl)ccc21 (stereo not drawn) [Compound 573] was tested. Which IC50 did it give?
Its IC50 is 287 nM.

With O=C(O)C1CCCCN1CCN1C(=O)COc2cc(-c3cccc(-c4cccc(-c5ccc6c(c5)OCC(=O)N6CCN5CCCCC5C(=O)O)c4Cl)c3Cl)ccc21 (stereo not drawn) [Compound 513] as the compound, how does the IC50 read?
Its IC50 is 8.23 nM.

How did the IC50 turn out when O=C1COc2cc(-c3cccc(-c4cccc(-c5ccc6c(c5)OCC(=O)N6CCO)c4Cl)c3Cl)ccc2N1CCO [Compound 378] was run?
The IC50 was 69.7 nM.

CC(=O)NCCNCCN1C(=O)COc2cc(-c3cccc(-c4cccc(-c5ccc6c(c5)OCC(=O)N6C[C@@H]5CCCN5)c4Cl)c3Cl)ccc21 [Compound 516] was tested. Which IC50 did it give?
The IC50 was 10.5 nM.

For O=C(O)CNCCCN1C(=O)COc2cc(-c3cccc(-c4cccc(-c5ccc6c(c5)OCC(=O)N6CCCNCC(=O)O)c4Cl)c3Cl)ccc21 [Compound 479], which IC50 is on record?
The IC50 was 6.02 nM.

How did the IC50 turn out when NC(=O)C[C@H](NCCN1C(=O)COc2cc(-c3cccc(-c4cccc(-c5ccc6c(c5)OCC(=O)N6CCN[C@@H](CC(N)=O)C(=O)O)c4Cl)c3Cl)ccc21)C(=O)O [Compound 570] was run?
Its IC50 is 10.9 nM.

With COC(=O)N[C@H](C(=O)N1CCC[C@H]1CN1C(=O)COc2cc(-c3cccc(-c4cccc(-c5ccc6c(c5)OCC(=O)N6C[C@@H]5CCCN5C(=O)[C@@H](NC(=O)OC)C(C)C)c4Cl)c3Cl)ccc21)C(C)C [Compound 422] as the compound, how does the IC50 read?
Its IC50 is at least 3000 nM.

Which IC50 does the source give for CC(=O)NCCNCCN1C(=O)COc2cc(-c3cccc(-c4cccc(-c5ccc6c(c5)OCC(=O)N6CCNCCNC(C)=O)c4Cl)c3Cl)ccc21 [Compound 461] here?
The IC50 was 4.06 nM.

How did the IC50 turn out when N#Cc1cncc(CCN2C(=O)COc3cc(-c4cccc(-c5cccc(-c6ccc7c(c6)OCC(=O)N7CCc6cncc(C#N)c6)c5Cl)c4Cl)ccc32)c1 [Compound 427] was run?
The IC50 was 68.7 nM.

For CC1(C)Oc2cc(-c3cccc(-c4cccc(-c5ccc6c(c5)OC(C)(C)C(=O)N6C[C@@H]5CCC(=O)N5)c4Cl)c3Cl)ccc2N(C[C@@H]2CCC(=O)N2)C1=O [Compound 372], which IC50 is on record?
Its IC50 is at least 3000 nM.

For N#Cc1cncc(CN2C(=O)COc3cc(-c4cccc(-c5cccc(-c6ccc7c(c6)OCC(=O)N7Cc6cncc(C#N)c6)c5Cl)c4Cl)ccc32)c1 [Compound 430], which IC50 is on record?
Its IC50 is at least 3000 nM.

For O=C(O)[C@H]1C[C@@H](O)CN1CCN1C(=O)COc2cc(-c3cccc(-c4cccc(-c5ccc6c(c5)OCC(=O)N6CCN5C[C@H](O)C[C@@H]5C(=O)O)c4Cl)c3Cl)ccc21 [Compound 484], which IC50 is on record?
The IC50 was 6.53 nM.
